pEC50, pIC50: −log10 of the molar value. Values after ≈ are worked out from the molar mass of the structure shown.
Assays:
[1] = Drug transport across human Caco-2 cells; type: in vitro ADME; settings: human; for Papp A→B at 10 µM / Papp B→A at 10 µM: Caco-2, pH 7.2, Caco-2 monolayers, pH 7.2, 37° C.; for Papp A→B at 10 µM: apical-to-basal, read-out: PEAB; for Papp B→A at 10 µM: basal-to-apical, read-out: PEBA; for efflux ratio at 10 μM: Caco-2, pH 7.2, PEBA/PEAB, Caco-2
Excerpt: Assay for Determination of Drug Transport Across Human Caco-2 Cells The assay provides information on the potential of a compound to pass the cell membrane, on the extent of oral absorption as well as on whether the compound is actively transported by uptake and/or efflux transporters. […] The compounds are assigned to permeability/absorption classes by comparison of the AB permeabilities with the AB permeabilities of reference compounds with known in vitro permeability and oral absorption in the human. Identical or similar permeabilities in both transport directions indicate passive permeation, vectorial permeability points to additional active transport mechanisms. […] Active transport is concentration-dependently saturable. Caco-2 cells (1-2*10^5 cells/cm^2 area) are seeded on filter inserts (Costar transwell polycarbonate or PET filters, 0.4 nm pore size) and cultured (DMEM) for 10 to 25 days. […] The transport solution (TL) is applied ici to the apical or basolateral donor side for measuring A-B or B-A permeability (3 filter replicates), respectively. The receiver side contains HTP-4 buffer supplemented with 2% BSA. […] Sampled receiver volumes are replaced with fresh receiver solution.

[2] = target: Human neutrophil elastase (Homo sapiens (Human), UniProt P08246); assay: Human Neutrophil Elastase Assay; type: biochemical; settings: human neutrophil elastase, substrate MeOSuc-Ala-Ala-Pro-Val-AMC 250 μM, pH 7.5; read-out: IC50
Human neutrophil elastase, sequence (P08246 30-247): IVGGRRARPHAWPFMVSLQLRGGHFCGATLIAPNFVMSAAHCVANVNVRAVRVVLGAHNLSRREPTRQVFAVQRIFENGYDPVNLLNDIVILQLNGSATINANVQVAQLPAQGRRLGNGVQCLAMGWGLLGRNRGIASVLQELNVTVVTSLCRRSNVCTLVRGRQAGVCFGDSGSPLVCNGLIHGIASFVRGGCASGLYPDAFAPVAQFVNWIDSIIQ

[3] = Metabolic stability with human liver microsomes; type: in vitro ADME; settings: human, microsomes, pH 7.6
Aqueous solubility = type: physicochemical; settings: McIlvaine buffer pH 6.8 with 2.5% DMSO, pH 6.8, aqueous buffer, kinetic from dmso stock, McIlvaine buffer pH 6.8, 2.5% DMSO, 24 h shaking
Experimental: Assay for Determination of Aqueous Solubility […] After 24 h of shaking, the solutions or suspensions are filtered and analyzed by LC-UV. The amount dissolved in buffer is compared to the amount dissolved in the acetonitrile/water (1/1) solution.

[4] = target: neutrophil elastase in human plasma (Homo sapiens (Human), UniProt P08246); assay: Neutrophil elastase inhibitory activity in human plasma (zymosan-stimulated blood); type: biochemical; settings: neutrophil elastase enriched human plasma from zymosan-stimulated blood; read-out: EC50
neutrophil elastase in human plasma, sequence (P08246 30-247): as above
Experimental: Assay for the Determination of Neutrophil Elastase Inhibitory Activity in Human Plasma
Citrated blood from human healthy donors is mixed with zymosan suspension and incubated at room temperature. This leads to the stimulation of neutrophils and the release of neutrophil elastase into the plasma. The stimulated blood is centrifuged to generate the neutrophil elastase enriched plasma.
Various concentrations of the neutrophil elastase inhibitor are incubated with plasma. […] A dose response curve is generated to calculate the EC50 of the inhibitor.

| Structure (SMILES) | Papp A→B at 10 µM [1] | Papp B→A at 10 µM [1] | pIC50 [2] | half-life at 1 μM [3] | solubility at 24 h (Aqueous solubility) | pEC50 [4] | efflux ratio at 10 μM [1] |
| --- | --- | --- | --- | --- | --- | --- | --- |
| CC(C)NC(=O)N1C(=O)N(c2cccc(C(F)(F)F)c2)C2=C(C(=O)CC2)[C@H]1c1ccc(C#N)cc1S(C)(=O)=O [Example 47.5] | 19.2 ×10⁻⁶ cm/s | 86.7 ×10⁻⁶ cm/s | > 9.00 | > 2.17 h | 16 µg/mL (≈ 28.5 µM) | 9.00 |  |
| CN1C(=O)N(c2cccc(C(F)(F)F)c2)C2=C(C(=O)CC2)C1c1ccc(C#N)cn1 (stereo not shown) [Example 26.1] | 67.7 ×10⁻⁶ cm/s | 64.2 ×10⁻⁶ cm/s | 7.57 | > 2.17 h | 41 µg/mL (≈ 99.4 µM) | 7.89 | 0.9 |
| CNC(=O)N1C(=O)N(c2cccc(C(F)F)c2)C2=C(C(=O)CC2)C1c1ccc(C#N)cc1 (stereo not shown) [Example 52.1] | 57.1 ×10⁻⁶ cm/s | 58.3 ×10⁻⁶ cm/s | 8.96 | > 2.17 h | 41 µg/mL (≈ 93.9 µM) | > 9.00 | 1 |
| CN1C(=O)N(c2cccc(C(F)F)c2)C2=C(C(=O)CC2)[C@H]1c1ccc(C#N)cc1 [Example 26A, (R)-4-(1-(3-(Difluoromethyl)phenyl)-3-methyl-2,5-dioxo-2,3,4,5,6,7-hexahydro-1H-cyclopenta[d]pyrimidin-4-yl)benzonitrile] | 72 ×10⁻⁶ cm/s | 76 ×10⁻⁶ cm/s | 8.62 | > 2.17 h | 41 µg/mL (≈ 104 µM) | 8.70 | 1.1 |
| COC(=O)N1C(=O)N(c2cccc(C(F)(F)F)c2)C2=C(C(=O)CC2)[C@H]1c1ccc(C#N)cc1S(C)(=O)=O [Example 33, (S)-Methyl 4-(4-cyano-2-(methylsulfonyl)phenyl)-2,5-dioxo-1-(3-(trifluoromethyl)-phenyl)-4,5,6,7-tetrahydro-1H-cyclopenta[d]pyrimidine-3(2H)-carboxylate] | 9.08 ×10⁻⁶ cm/s | 71.2 ×10⁻⁶ cm/s | > 9.00 | > 2.17 h | 43 µg/mL (≈ 80.6 µM) | > 9.00 | 7.8 |
| CC(C)(O)CNC(=O)N1C(=O)N(c2cccc(C(F)F)c2)C2=C(C(=O)CC2)C1c1ccc(C#N)cc1 (stereo not shown) [Example 52.5] | 4.45 ×10⁻⁶ cm/s | 62.7 ×10⁻⁶ cm/s | > 9.00 | > 2.17 h | 70 µg/mL (≈ 142 µM) | 9.00 | 14.1 |
| CS(=O)(=O)c1cc(C#N)ccc1[C@@H]1C2=C(CCC2=O)N(c2cccc(C(F)(F)F)c2)C(=O)N1C(=O)NC1CC1 [Example 47.4] | 7.74 ×10⁻⁶ cm/s | 85.5 ×10⁻⁶ cm/s | > 9.00 | > 2.17 h | 19 µg/mL (≈ 34 µM) | > 9.00 |  |
| CCS(=O)(=O)c1cc(C#N)ccc1[C@H]1NC(=O)N(c2cccc(C(F)(F)F)c2)C2=C1C(=O)CC2 [Example 14A, (S)-4-(2,5-Dioxo-1-(3-(trifluoromethyl)phenyl)-2,3,4,5,6,7-hexahydro-1H-cyclopenta[d]pyrimidin-4-yl)-3-(ethylsulfonyl)benzonitrile] | 10.3 ×10⁻⁶ cm/s | 94.8 ×10⁻⁶ cm/s | 8.92 | > 2.17 h | 62 µg/mL (≈ 127 µM) | 9.00 | 9.2 |
| N#CCN1C(=O)N(c2cccc(C(F)(F)F)c2)C2=C(C(=O)CC2)C1c1ccc(C#N)cc1 (stereo not shown) [Example 22, 4-(3-(Cyanomethyl)-2,5-dioxo-1-(3-(trifluoromethyl)phenyl)-2,3,4,5,6,7-hexahydro-1H-cyclopenta[d]pyrimidin-4-yl)benzonitrile] | 36.5 ×10⁻⁶ cm/s | 54.5 ×10⁻⁶ cm/s | 7.59 | > 2.17 h | 13 µg/mL (≈ 29.8 µM) | 7.64 | 1.5 |

Reference: US9290459B1, “Substituted bicyclic dihydropyrimidinones and their use as inhibitors of neutrophil elastase activity” (Boehringer Ingelheim International GmbH, priority 2013, dated 2016)
